Reference: patent US11166924B2, “N-methyl-d-aspartate receptor allosteric modulators and methods for their use” (Qingdao Primedicine Pharmaceutical Company, Ltd., priority 2016, dated 2021)

Legend:
GluN1/GluN2A^F115S = molecular target: T1, GluN1/GluN2A^F115S (Rattus norvegicus, UniProt P35439+Q00959, F115S); experiment: Patch clamp in HEK293 cells expressing mutant GluN1/GluN2A F115S; type: cell-based
T1 construct: expressed in transfected cells; host or cells: HEK293
Description: (§1) Whole cell patch-clamp recordings were performed under voltage-clamp mode using an Axopatch 200B or 1D patch-clamp amplifier (Molecular Devices). Whole-cell currents were recorded at a holding potential of −60 mV unless indicated elsewhere, and signals were filtered at 2 kHz, digitized at 10 kHz (Digidata 1322A). Recording pipettes (3-5 MΩ) were filled with intracellular solution containing (mM): CsCl 140, HEPES 10, Mg-ATP 4, QX-314 5, pH 7.20; osmolarity, 290-295 mOsm. BAPTA (10 mM) was added in the intracellular solution (unless otherwise specified). The coverslips were continuously superfused with extracellular solution containing (mM): NaCl 140, KCl 5.4, HEPES 10, CaCl2 1.3, glucose 20, pH 7.4; osmolarity, 305-315 mOsm. NMDA-induced currents were applied by NMDA through perfusion fast-step (Warner Instruments). With perfusion fast-step system, NMDA application was achieved by using a two-square barrel glass tubing and depending on the age of the cultured neurons, CNQX (10 μM), TTX (0.5 μM) or BIC (10 μM) were added in the extracellular solution to minimize the activation of ionotropic glutamate receptors and voltage-gated sodium channels, respectively. All experiments were performed at room temperature. Recordings from at least six HEK293 cells/neurons were performed for all active compounds. […]

GluN1^L135Q/GluN2A^F115S = molecular target: T2, GluN1^L135Q/GluN2A^F115S (Rattus norvegicus, UniProt P35439+Q00959, F115S/L135Q); experiment: Patch clamp in HEK293 cells expressing double mutant GluN1 L135Q/GluN2A F115S; type: cell-based
T2 construct: expressed in transfected cells; host or cells: HEK293
T2 sequence (Q00959 23-1464 F115S, other chains not shown): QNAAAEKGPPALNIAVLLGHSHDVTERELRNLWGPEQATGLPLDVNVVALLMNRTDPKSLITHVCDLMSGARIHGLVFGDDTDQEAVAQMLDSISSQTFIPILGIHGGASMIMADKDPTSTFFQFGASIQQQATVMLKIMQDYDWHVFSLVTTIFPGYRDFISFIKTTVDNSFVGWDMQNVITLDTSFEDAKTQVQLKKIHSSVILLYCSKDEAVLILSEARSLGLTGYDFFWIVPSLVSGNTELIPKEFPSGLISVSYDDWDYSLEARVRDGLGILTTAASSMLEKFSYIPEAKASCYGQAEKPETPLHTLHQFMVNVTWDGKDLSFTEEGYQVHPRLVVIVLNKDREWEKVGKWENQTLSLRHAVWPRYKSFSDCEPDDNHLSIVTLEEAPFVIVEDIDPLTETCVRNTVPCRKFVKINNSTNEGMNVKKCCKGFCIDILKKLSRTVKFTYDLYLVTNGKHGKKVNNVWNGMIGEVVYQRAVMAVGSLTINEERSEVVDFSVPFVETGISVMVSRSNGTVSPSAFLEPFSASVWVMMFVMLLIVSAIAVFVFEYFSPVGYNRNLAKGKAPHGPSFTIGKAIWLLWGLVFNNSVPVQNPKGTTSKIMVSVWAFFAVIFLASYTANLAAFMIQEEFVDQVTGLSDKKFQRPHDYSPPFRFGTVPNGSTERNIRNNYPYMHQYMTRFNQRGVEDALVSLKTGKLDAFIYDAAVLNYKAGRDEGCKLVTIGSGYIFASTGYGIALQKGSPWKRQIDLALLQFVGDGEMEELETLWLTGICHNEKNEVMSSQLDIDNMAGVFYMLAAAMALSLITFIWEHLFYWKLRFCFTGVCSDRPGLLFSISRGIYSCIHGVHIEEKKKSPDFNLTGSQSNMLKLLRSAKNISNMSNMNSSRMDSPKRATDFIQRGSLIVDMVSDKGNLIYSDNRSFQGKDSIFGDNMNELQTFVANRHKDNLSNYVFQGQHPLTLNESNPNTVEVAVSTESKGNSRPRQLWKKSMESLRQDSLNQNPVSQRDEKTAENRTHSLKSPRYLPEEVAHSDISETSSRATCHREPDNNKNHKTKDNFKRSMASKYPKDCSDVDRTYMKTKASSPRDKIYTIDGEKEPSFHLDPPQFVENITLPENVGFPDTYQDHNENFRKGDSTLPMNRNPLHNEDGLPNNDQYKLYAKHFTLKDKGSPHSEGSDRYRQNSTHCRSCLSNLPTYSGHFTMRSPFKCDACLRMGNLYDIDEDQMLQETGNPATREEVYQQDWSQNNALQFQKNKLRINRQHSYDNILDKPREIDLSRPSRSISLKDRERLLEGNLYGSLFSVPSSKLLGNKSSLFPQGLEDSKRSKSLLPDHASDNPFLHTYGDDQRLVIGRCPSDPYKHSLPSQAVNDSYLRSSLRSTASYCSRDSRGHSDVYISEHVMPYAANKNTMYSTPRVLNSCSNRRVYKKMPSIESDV
Description: as §1

cortical neurons = experiment: H2O2-induced cytotoxicity in cortical neurons; type: cell-based; conditions: in the absence of NVP-AAM007; FIG. 17
hippocampal slices (LTP) = experiment: Long-term potentiation (LTP) in hippocampal slices; conditions: mouse hippocampal slices; FIG. 19
Text: 6-8 week old C57/Bl6 mice or rats underwent cervical dislocation followed by decapitation. The brain was immediately transferred to an ice cold NMDG-based cutting solution consisting of: (in mM): 120 NMDG, 2.5 KCl, 1.2 NaH2PO4, 25 NaHCO3, 1.0 CaCl2, 7.0 MgCl2, 2.4 Na-pyruvate, 1.3 Na-ascorbate, 20 D-glucose with pH adjusted to 7.35 using HCl acid (unless stated, all chemicals and drugs were purchased from Sigma or BioShop, Canada). The hippocampus was dissected out and transverse hippocampal slices (400 μm) were obtained using a manual tissue chopper (Stoelting, Wood Dale, Ill., USA). Slices recovered in a heated (30° C.) incubating chamber for 1 hr which contained ACSF composed of (in mM): 124 NaCl, 3 KCl, 1.25 NaH2PO4, 1 MgSO47H2O, 2 CaCl2), 26 NaHCO3 and 15 D-glucose which was bubbled continuously with carbogen (95% O2/5% CO2) (pH to 7.3). After 30 additional minutes at room temperature, slices were transferred to a submerged recording chamber and were perfused continuously with carbogenated ACSF (2-3 ml/min). Whole-cell recordings of CA1 pyramidal neurons were performed using the “blind” method with a MultiClamp 700B amplifier. EPSCs (excitatory post synaptic currents) were elicited by stimulating the SC pathway. For isolation of NMDAR currents, cells were voltage clamped at +40 mV. […]

T1 sequence (Q00959 23-1464 F115S, other chains not shown): as above

CCOc1cc(Cl)c(Cl)c(/C=N/NC(=O)c2ccccc2Br)c1O [Npam43, (E)-2-bromo-N′-(2,3-dichloro-5-ethoxy-6-hydroxybenzylidene)benzohydrazide]
Relative potentiation (GluN1/GluN2A^F115S; Table 3): 68.1 ± 14.1%
Net Difference potentiation (GluN1/GluN2A^F115S; normalized to wild-type): −67.4±11.8%
Net Difference potentiation (GluN1^L135Q/GluN2A^F115S; GluN1 L135Q/GluN2A F115S double mutation, normalized to wild-type): −93.9±10.3%
Relative potentiation (GluN1^L135Q/GluN2A^F115S; Table 3, GluN1 L135Q/GluN2A F115S): 12.7 ± 1.8%
H2O2-induced non-NMDAR dependent cytotoxicity (cortical neurons): reduced
Induction of LTP (hippocampal slices (LTP)): can facilitate the induction of LTP
